Experimental data as given in US20140221207A1, “ISOLATED BACTERIAL STRAIN OF THE GENUS BURKHOLDERIA AND PESTICIDAL METABOLITES THEREFROM- FORMULATIONS AND USES” (MARRONE BIO INNOVATIONS, INC., priority 2011, published 2014).
Where two headings read alike, the source gives them in different places.

What was measured:
[1] = tested on: M. incognita and M. hapla; test: In vitro 96-well nematode immobility bioassay, mean of trials T1 and T2; type: in vivo; details: 3 μl of 20 mg/ml to 50 μl, 24 hour, 25° C
Description: (§1) The pure sample of butyl paraben and hexyl paraben was used in an in vitro 96-well plastic cell-culture plate bioassay. 15-20 nematodes in a 50 μl water solution were exposed to 3 μl of a 20 mg/ml peak concentrate for a 24 hour period at 25° C. Once the incubation period was completed, results were recorded based on a visual grading of immobility of the juvenile nematodes (J2's) in each well treated with compounds; each treatment was tested in replicate of 4 wells. […] Three controls are included in each trial; 1 positive (1% Avid) & 2 negative (DMSO & water). Trials (T1) was carried out using M. incognita nematodes and trail (T2) was carried out using M. hapla nematodes, the samples were dissolved in 100% DMSO.

M. incognita [2] = test: In vitro 96-well nematode immobility bioassay, trial T1; type: in vivo; details: 3 μl of 20 mg/ml to 50 μl, 24 hour, 25° C
Description: as §1

M. hapla = test: In vitro 96-well nematode immobility bioassay, trial T2; type: in vivo; details: 3 μl of 20 mg/ml to 50 μl, 24 hour, 25° C
Description: as §1

radish plants = test: Whole plant herbicidal bioassay on radish; type: in vivo; design: Control, Day-1 Reading, Replicate 1 / Control, Day-1 Reading, Replicate 2 / Control, Day-1 Reading, Replicate 3 / Control, Day-1 Reading, AVG / Control, Day-7 Reading, Replicate 1 / Control, Day-7 Reading, Replicate 2 / Control, Day-7 Reading, Replicate 3 / Control, Day-7 Reading, AVG: scale not given here; details: 10 mg/ml; for Control, Day-1 Reading, AVG / Control, Day-1 Reading, Replicate 1 / Control, Day-1 Reading, Replicate 2 / Control, Day-1 Reading, Replicate 3 / Control, Day-7 Reading, AVG / Control, Day-7 Reading, Replicate 1 / Control, Day-7 Reading, Replicate 2 / Control, Day-7 Reading, Replicate 3: foliar spray
Description: Healthy radish plants with two to three true leaves were selected for testing. The radish plants are 13 days old at treatment. The plants are sorted so that all treatments are equivalent in foliage surface area and plant height. The pots are labeled with treatment number and repetition number. Three repetitions per treatment are tested.
Ten fractions of MBI-206 formulated product are tested. The fractions are at a concentration of 10 mg/ml. The crude extracts of the formulated product and broth are also tested. An untreated control (treated with deionized water) and a positive control (RoundUp Super Concentrate at a rate of 2.5 fluid ounces per gallon) are included in the test.
All products and treatments are well shaken prior to application. Treatments are applied using a nozzle from a 2-ounce spray bottle. Separate spray nozzles were used for each treatment. […] Two milliliters of each treatment are sprayed simultaneously over the three repetitions of each treatment so that each plant is treated with approximately 0.67 milliliters of treatment solution.
The plants are allowed to air dry and are then randomized in holding trays. Each tray is labeled with the experiment name and treatment date and placed on the laboratory greenhouse shelves. The laboratory greenhouse maintains a temperature of 70-80° F. and a relative humidity of 30-40%. Throughout the bioassay, plants are watered from below by filling the holding trays with an appropriate amount of water so that plant foliage remained dry.
Symptoms included foliage burning and plant stunting. The following rating scale, shown in Table 4 is used to quantify efficacy. Ratings are determined by observing the following factors relative to the plants of the untreated control: overall plant health, average plant height, and foliage health. Symptoms of affected plants may include discolored/spotted/burnt/bleached foliage, warped/twisted/curled leaves, side branching (due to damaged apical meristem), plant dieback, or death.
The pure compounds (butyl paraben [MBI206-FP-F5H32] and hexyl paraben [MBI206-FP-F5H40]) obtained from fraction 5 were tested at a concentration of 10 mg/ml. An untreated control (treated with deionized water), the formulation blank (at 3% v/v & 10% v/v), and a positive control (RoundUp Super Concentrate at a rate of 2.5 fluid ounces per gallon) are included in the test.

[3] = tested on: Beet Armyworm (Spodoptera exigua); test: 96-well diet overlay assay with 1st instar Beet Armyworm larvae; type: in vivo; details: for mortality at 40 µg/disc: Spodoptera exigua
Description: The insecticidal activity of butyl paraben (MBI206-FP-F5H32) and hexyl paraben (MBI206-FP-F5H40) were tested in a laboratory assay using a 96-well diet overlay assay with 1st instar Beet Armyworm (Spodoptera exigua) larvae using microtiter plates with 200 ul of solid, artificial Beet Armyworm diet in each well. One hundred (100) microliters of each test sample (containing 40 ug of sample) is pipetted on the top of the diet (one sample in each well), and the sample is let dry under flowing air until the surface is dry. Each sample was tested in six replicates, and water and a commercial Dipel product are used as negative and positive controls, respectively. One first instar larvae of the test insect (Beet armyworm—Spodoptera exigua) was placed in each well, and the plate was covered with plastic cover with airholes. The plates with insects were incubated at 26° C. for 6 days with daily mortality evaluations.

M. incognita [4] = test: In vitro 96-well nematode immobility bioassay of FR901228, trial T2; type: in vivo; details: 3 μl of 20 mg/ml to 50 μl, 24 hour, 25 C
Description: (§2) The pure sample of FR 901228 was tested using an in vitro 96-well plastic cell-culture plate bioassay. 15-20 nematodes in a 50 μl water solution were exposed to 3 μl of a 20 mg/ml solution of FR 901228 for a 24 hour period at 25 C. Once the incubation period was completed, results were recorded based on a visual grading of immobility of the juvenile nematodes (J2's) in each well treated with compounds; each treatment was tested in replicate of 4 wells. Three controls are included in each trial; 1 positive (1% Avid) & 2 negative (DMSO & water). Trials (T1) was carried out using Free living nematodes (FLN) and trail (T2) was carried out using M. incognita nematodes, the samples were dissolved in 100% DMSO.

[5] = tested on: Chlamydomonas reinhardtii; test: Control of Chlamydomonas reinhardtii by purified compounds, fluorescence at 680 nm; type: cell-based; details: 72 hours
Description: Purified compounds from Burkholderia sp. fermentation broth was tested for algaicidal activity against Chlamydomonas reinhardtii. An increasing volume of the purified compounds (20 mg/mL in ethanol) was added to a clear 48 well polystyrene plate with 750 micro liters of the specified algae growing. Each treatment was done in two replicates and the solvent used as a negative control. The plate was closed with a lid and incubated for 72 hours under constant light at room temperature. After 72 hours the fluorescence (at 680 nm) of the suspension in each well was measured using a SpectraMax M2 plate reader, and the reduction in fluorescence compared with the negative control was converted into percent control of algal growth. Each sample was visually compared to the negative control; a well that was visually clearer than the negative control was scored as active. […] Tests were run in two replicates and %. Control was calculated as a reduction of fluorescence at 680 nm compared with the negative control. Each sample was visually compared to the negative control; a well that was visually clearer than the negative control was scored as active.

[6] = tested on: Free living nematodes (FLN); test: In vitro 96-well nematode immobility bioassay of FR901228, trial T1; type: in vivo; details: 3 μl of 20 mg/ml to 50 μl, 24 hour, 25 C
Description: as §2

Lygus hesperus = test: 12 well plate treated green beans bioassay, Lygus hesperus late 2nd/early 3rd instar; type: in vivo; details: Lygus hesperus; green beans dipped in 0.25 mg/mL; scored at 24, 48 and 120 hours
Description: The insecticidal activity of the four compounds, templamide A, templamide B, FR901465 & FR901228 isolated from Burkholderia were tested in a laboratory assay using a 12 well plate with treated green beans bioassay system. The compound was dissolved in 100% ethanol to concentrations of […] and 500 μL of this sample was added to 3.5 mL of water to make a total volume of 4 mL containing 0.25 mg/mL concentration of the compound. Green beans were washed earlier in bleach solution and then sat in water to rinse. Beans were dried before using and then were cut with scissors to fit into wells of 12-well plate. With the help of forceps the beans were dunked into a 15 mL plastic falcon tube containing each treatment and then submerged in treatment for exactly one min. one bean part was put into each well and then individual late 2nd/early 3rd instar Lygus hesperus, were placed in wells with help of brush. Plate sealer was used to cover tray and hole poked into the plate sealer for aeration. The numbers of Lygus/well were counted and plates were placed on brench top. Larvae were scored at 24, 48 and 120 hours after application. […] The positive control used in this testing was Avid (Avemectin) at the rate of 13 μL/10 mL.

[7] = tested on: milkweed bugs (Oncopeltus fasciatus); test: Sucking contact bioassay on milkweed bugs; type: in vivo; details: 1 μL of 1 mg/mL in ethanol onto abdomen of 4th instar; scored at 4 and 7 day
Description: The insecticidal activity of the pure compounds templamide B (MBI 206; MW 537), FR 901465 (MBI 206; MW 523) and FR901228 (MBI 206; MW 540) were tested in a laboratory assay using a sucking contact bioassay system. The compounds were dissolved in 100% ethanol to concentrations of 1 mg/mL. Individual 4th instar milkweed bugs, penultimate nymph, larvae were placed in 5C Rubbermaid container with 2 sunflower seeds in each tub and 1 water cup (water in contact cup with cotton wick) into each tub. A Hamilton Micropipette was used to apply 1 μL (1 drop) of compound onto abdomen of milkweed bugs (MWB) of each larvae. Tubs were place into the Rubbermaid container and cap with mesh lid. Eight larvae per sample were treated. The assay was incubated at 25° C., 12 h light/12 h dark. Larvae were scored at 4 and 7 day after application. […] Thus, FR 901465 provided a better (87.5%) control of milkweed bugs, than FR 901228 (MW 540) and templamide B (FIG. 4).

[8] = 72 h, read-out: Insecticidal bioassay data (mortality), Day 3
[9] = 96 h, read-out: Insecticidal bioassay data (mortality), Day 4
[10] = 5 μL of sample (20 mg/mL in ethanol) per 750 μL of algae
[11] = 5 μL of sample per 750 μL of algae
[12] = 11 μL of sample (20 mg/mL in ethanol) per 750 μL of algae
[13] = 11 μL of sample per 750 μL of algae
[14] = 22.5 μL of sample (20 mg/mL in ethanol) per 750 μL of algae
[15] = 22.5 μL of sample per 750 μL of algae, well visually clearer than negative control scored as active

Structure (SMILES)	Mean % immobility [1] [%]	% immobility (trial # T1) (M. incognita [2]) [%]	immobility against M. incognita (M. incognita [2]) [%]	% immobility (trial # T2) (M. hapla) [%]	Control, Day-1 Reading, AVG (radish plants)	Control, Day-1 Reading, Replicate 1 (radish plants)	Control, Day-1 Reading, Replicate 2 (radish plants)	Control, Day-1 Reading, Replicate 3 (radish plants)	Control, Day-7 Reading, AVG (radish plants)	Control, Day-7 Reading, Replicate 1 (radish plants)	Control, Day-7 Reading, Replicate 2 (radish plants)	Control, Day-7 Reading, Replicate 3 (radish plants)	mortality at 40 µg/disc [3, 8] [%]	mortality at 40 µg/disc [3, 9] [%]	% Control [5, 10] [%]	Visual [5, 11]	% Control [5, 12] [%]	Visual [5, 13]	% Control [5, 14] [%]	Visual [5, 15]	further results
CCCCOC(=O)c1ccc(O)cc1 [Butyl paraben, butyl paraben]	81.25	75	81.25	87.5	18.3	25	5	25	24.2	25	10	37.5	8.93	8.93	–	–	–	–	–	–	mortality ([3]; 40 ug of sample per well, text summary of Table 7): 9%
C/C=C1\NC(=O)[C@H]2CSSCC/C=C/[C@H](CC(=O)N[C@H](C(C)C)C(=O)N2)OC(=O)[C@H](C(C)C)NC1=O [FR901228]	–	–	–	–	–	–	–	–	–	–	–	–	–	–	89.48	Active	99.36	Active	98.71	Active	immobility (M. incognita [4]): 75%; immobility [6]: 75%; mortality at 250 µg/mL (Lygus hesperus): 51.7%
CC(=O)OC(C)/C=C\C(=O)NC1CC(C)C(C/C=C(C)/C=C/C2OC(C)(O)C(O)C3(CO3)C2O)OC1C (centres unmarked) [FR901465]	–	–	–	–	–	–	–	–	–	–	–	–	–	–	−86.58	Not Active	−33.58	Not Active	−3.887	Not Active	mortality at 250 µg/mL (Lygus hesperus): 91.2%; control of milkweed bugs [7]: 87.5%
CCCCCCOC(=O)c1ccc(O)cc1 [Hexyl paraben, hexyl paraben]	93.75	87.5	93.75	100	75.0	75	75	75	87.5	87.5	87.5	87.5	50	70.8	–	–	–	–	–	–	herbicidal potency in words (radish plants; compared with butyl paraben): most potent herbicidal compound
